Where “and” joins values, the source holds several entries; their conditions need not be identical. Equal values may be shown once. Entries after “also recorded” stand apart in the source; their conditions may differ.
Columns and labels:
[1] = Plasma exposure after single s.c. injection, LC-MS/MS; format: in vivo, mouse; parameters: maximal plasma concentration / plasma concentration, individual mice: unit not given here
Method: Assessment of plasma levels and biodistribution of mPD5.
The mPD5 plasma exposure was determined by (WuXI AppTec (Shanghai, China)) and done following s.c. injection of three male C57BL/6N (vendor: VTLH) mice (7-9 weeks old, fasted) with each concentration of mPD5 (2, 10 and 50 µmol/kg) in sterile PBS. Blood samples were taken 30 min, 1 hour, 2 hours, 5 hours, and 12 hours following injection. For the repeated administration experiment, the initial s.c. injection of 10 µmol/kg was followed by 4 s.c. administrations of 2 µmol/kg with one hour between injections. Following the last injection, blood samples (0.03 mL from saphenous vein or other suitable site) were collected in EDTA- […]
K2 tubes at 5 min, 30 min, 1 hour, 5 hours, 12 hours, 24 hours, and 48 hours and centrifuged (app 4 ℃, 3200 g, 10 min) for collection of plasma. Plasma was transferred to 96 well plates and quick-frozen over dry ice and kept at -60 ℃ until LC-MS/MS analysis. For LC-MS/MS analysis plasma with 0.25% Triton X100 in 50% MeOH/water (6 µL) was quenched with 160 µL of IS1 (internal standard in MeOH (Labetalol & tolbutamide & Verapamil & dexamethasone & glyburide & Celecoxib 100 ng/mL for each)) and the mixture was vortexed for 10 min at 800 rpm and centrifuged for 15 min at 3220 × g at 4 ℃. An aliquot of 65 µL supernatant was transferred to a clean 96-well plate and centrifuged for 5 min at 3220 × g at 4 ℃, then the supernatant was directly injected for LC-MS/MS analysis. Plasma half-lives were determined from three points in the elimination phase. […]

naive mice = test: Barnes maze (spatial learning and memory, reversal learning); format: in vivo, mouse; details: for Barnes maze, count per hole (Fig S8D) / Barnes maze, count per hole (Fig S8E): individual animals;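 as to Barnes maze, count per hole (Fig S8D): Nose pokes per hole during a probe trial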;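 as to Barnes maze, count per hole (Fig S8E): Nose pokes per hole during a probe trial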
Method: Spatial learning and memory.
On each day, animals were moved from the housing facility to the experimental room and allowed to acclimatize for at least 60 min before initiation of the experiment. All drugs used (PBS or 10 μmol/kg mPD5) were injected s.c. in a 10 μl/g body weight volume 60 min before first placement on the Barnes’ maze on day 1-9 of the experiment. The experiment was divided into Barnes maze habituation, spatial acquisition (training) and probe trials. During habituation to the Barnes maze itself, animals were placed under a cylinder in the middle of the Barnes maze for 10 seconds and then gently guided to the escape box and left there for two min. During spatial acquisition (training), each mouse was placed under a cylinder in the middle of the Barnes maze for 10 sec followed by up to three min of free exploration of the Barnes maze.
Once the animal entered the escape cage, it was left there for one min before being transferred back to its home cage for 15-20 min. This training was performed four times per day per mouse.
During probe trials the reference memory of the animal was tested by placing each mouse under a cylinder in the middle of the Barnes maze for 10 sec followed by 90 sec of free exploration of the Barnes maze with no escape cage. On days 6-8, the escape hole was moved 90 degrees, and all mice went through the second bout of training. On day nine, a second probe trial was performed testing the reversal learning of the mice. […]
Single exposure place preference. […]

CCCCCCCCCCCCCC(=O)N(CCOCCOCCC(=O)N[C@@H](Cc1c[nH]cn1)C(=O)N[C@@H](Cc1c[nH]c2ccccc12)C(=O)N[C@@H](CC(C)C)C(=O)N[C@@H](CCCCN)C(=O)N[C@H](C(=O)O)C(C)C)CCOCCOCCC(=O)N[C@@H](Cc1c[nH]cn1)C(=O)N[C@@H](Cc1c[nH]c2ccccc12)C(=O)N[C@@H](CC(C)C)C(=O)N[C@@H](CCCCN)C(=O)N[C@H](C(=O)O)C(C)C [mPD5, myristoyl-NPEG4-(HWLKV)2] gave a half-life ([1]; male, C57BL/6N, mouse, plasma, sc, 2 umol/kg, mice, s.c. 2 μmol/kg) of 30 ± 4.2 min, a half-life ([1]; male, C57BL/6N, mouse, plasma, sc, 10 umol/kg, mice, s.c. 10 μmol/kg) of 35.4 ± 4.2 min and a half-life ([1]; male, C57BL/6N, mouse, plasma, sc, 10 umol/kg; mice, s.c. 10 μmol/kg) of 36 min. It also gave a half-life ([1]; male, C57BL/6N, mouse, plasma, sc, 50 umol/kg, mice, s.c. 50 μmol/kg) of 50.4 ± 1.8 min, a Tmax ([1]; male, C57BL/6N, mouse, plasma, sc, 50 umol/kg; mice, s.c., all doses (2, 10, 50 μmol/kg); read-out: time of maximal plasma concentration) of 60 min and a maximal plasma concentration ([1]; mice, s.c. 2 μmol/kg, 1 hour) of 1.4 ± 0.1. The maximal plasma concentration ([1]; mice, s.c. 10 μmol/kg, 1 hour) was 6.2 ± 5, the maximal plasma concentration ([1]; mice, s.c. 50 μmol/kg, 1 hour) was 20.2 ± 0.6 and the “maximal dose and area under the curve vs dose” value ([1]; mice, s.c. 2, 10, 50 μmol/kg) was “scaled linearly with dose”. The distribution volume ([1]; mice, s.c., all concentrations) was “approximately 30 mL”, the elimination kinetics ([1]; mice, s.c., all doses) was “first-order kinetics; also recorded: eliminated with linear kinetics” and the “plasma concentration, individual mice” value ([1]; s.c. 2µmol/kg; 0.5 h) was 1295 and 1523 and 1490. For the same compound, the “plasma concentration, individual mice” value ([1]; s.c. 2µmol/kg; 1 h) was 1326 and 1469 and 1351, the “plasma concentration, individual mice” value ([1]; s.c. 2µmol/kg; 2 h) was 439 and 392 and 443 and the “plasma concentration, individual mice” value ([1]; s.c. 2µmol/kg; 5 h) was 8.69 and 2.25 and 8.61. For the same compound, the “plasma concentration, individual mice” value ([1]; s.c. 10µmol/kg; 0.5 h) was 4235 and 5102 and 3488, the “plasma concentration, individual mice” value ([1]; s.c. 10µmol/kg; 1 h) was 6616 and 5618 and 6285 and the “plasma concentration, individual mice” value ([1]; s.c. 10µmol/kg; 2 h) was 2485 and 2007 and 1777. For the same compound, the “plasma concentration, individual mice” value ([1]; s.c. 10µmol/kg; 5 h) was 101 and 46.6 and 33.1, the “plasma concentration, individual mice” value ([1]; s.c. 50µmol/kg; 0.5 h) was 12546 and 11390 and 17752 and the “plasma concentration, individual mice” value ([1]; s.c. 50µmol/kg; 1 h) was 20045 and 20980 and 19750. For the same compound, the “plasma concentration, individual mice” value ([1]; s.c. 50µmol/kg; 2 h) was 14800 and 13957 and 8907, the “plasma concentration, individual mice” value ([1]; s.c. 50µmol/kg; 5 h) was 1391 and 1198 and 438 and the “plasma concentration, individual mice” value ([1]; s.c. 50µmol/kg; 12 h) was 3.21 and 3.81 and 2.66. For the same compound, the “Barnes maze, count per hole (Fig S8D)” value (naive mice; hole position 1) was 2 (3×) and 1 (2×) and 0 (2×) and 3 (2×), the “Barnes maze, count per hole (Fig S8E)” value (naive mice; hole position 1) was 3 (6×) and 1 (2×) and 2 and the “Barnes maze, count per hole (Fig S8D)” value (naive mice; hole position 2) was 0 (5×) and 1 (3×) and 2. The “Barnes maze, count per hole (Fig S8E)” value (naive mice; hole position 2) was 0 (6×) and 1 (3×), the “Barnes maze, count per hole (Fig S8D)” value (naive mice; hole position 3) was 1 (4×) and 2 (3×) and 0 (2×) and the “Barnes maze, count per hole (Fig S8E)” value (naive mice; hole position 3) was 1 (7×) and 0 and 2. For the same compound, the “Barnes maze, count per hole (Fig S8D)” value (naive mice; hole position 4) was 0 (4×) and 2 (2×) and 1 (3×), the “Barnes maze, count per hole (Fig S8E)” value (naive mice; hole position 4) was 1 (6×) and 2 (2×) and 0 and the “Barnes maze, count per hole (Fig S8D)” value (naive mice; hole position -1) was 2 (3×) and 3 and 1 (2×) and 6 and 0 and 4. The “Barnes maze, count per hole (Fig S8E)” value (naive mice; hole position -1) was 3 (4×) and 0 (2×) and 1 and 2 and 4, the “Barnes maze, count per hole (Fig S8D)” value (naive mice; hole position -2) was 0 (8×) and 1 and the “Barnes maze, count per hole (Fig S8E)” value (naive mice; hole position -2) was 0 (4×) and 1 (4×) and 2. The “Barnes maze, count per hole (Fig S8D)” value (naive mice; hole position -3) was 0 (6×) and 1 (2×) and 2, the “Barnes maze, count per hole (Fig S8E)” value (naive mice; hole position -3) was 1 (5×) and 0 (2×) and 2 (2×) and the “Barnes maze, count per hole (Fig S8D)” value (naive mice; hole position -4) was 0 (6×) and 2 (2×) and 1. For the same compound, the “Barnes maze, count per hole (Fig S8E)” value (naive mice; hole position -4) was 1 (6×) and 0 (2×) and 2, the “Barnes maze, count per hole (Fig S8D)” value (naive mice; hole position -5) was 0 (6×) and 2 (2×) and 1 and the “Barnes maze, count per hole (Fig S8E)” value (naive mice; hole position -5) was 1 (4×) and 0 (2×) and 2 (2×) and 3. For the same compound, the “Barnes maze, count per hole (Fig S8D)” value (naive mice; hole position -6) was 0 (6×) and 3 and 1 (2×), the “Barnes maze, count per hole (Fig S8E)” value (naive mice; hole position -6) was 1 (3×) and 0 (2×) and 2 (3×) and 3 and the “Barnes maze, count per hole (Fig S8D)” value (naive mice; hole position -7) was 0. For the same compound, the “Barnes maze, count per hole (Fig S8E)” value (naive mice; hole position -7) was 0, the “Barnes maze, count per hole (Fig S8D)” value (naive mice; hole position Goal) was 2 (2×) and 3 (2×) and 6 (2×) and 1 (2×) and 4 and the “Barnes maze, count per hole (Fig S8E)” value (naive mice; hole position Goal) was 4 (3×) and 3 (3×) and 2 (2×) and 1. The “latency to reach target and total distance moved, probe test day 5” value (naive mice; s.c. 10 μmol/kg 60 minutes before placement, after 4 days of training) was “no difference”, the “latency to reach the target and total distance moved following reversal learning” value (naive mice; s.c. 10 μmol/kg 60 minutes before placement, probe test day 9) was “no difference was observed” and the “distribution of nose pokes between the holes” value (naive mice; s.c. 10 μmol/kg, both probe tests) was “did not differ between groups”.
